Measured values: patent publication EP3996708B1, “PHARMACEUTICAL COMPOSITIONS COMPRISING INHIBITORS OF OPA1 FOR USE IN THE TREATMENT OF CANCER” (priority 2019, dated 2021)
Where two headings read alike, the source gives them in different places. Blank lines part the entries; values can stand above or below the molecule they belong to.

Columns and labels:
rOPA1 = molecular target: T1, rOPA1 (Mus musculus, UniProt P58281); assay: Malachite green (MG) GTPase activity assay of rOPA1, assay set-up and high-throughput screening (384-well); format: biochemical; conditions: for inhibition of rOPA1 GTP hydrolysis: comparison of candidates for positive control; for rOPA1 activity: increasing concentrations of the non-hydrolysable GTP analogues
T1 construct: His-tag (C); made in house; host or cells: E. coli
T1 sequence (P58281 168-960 limits assumed): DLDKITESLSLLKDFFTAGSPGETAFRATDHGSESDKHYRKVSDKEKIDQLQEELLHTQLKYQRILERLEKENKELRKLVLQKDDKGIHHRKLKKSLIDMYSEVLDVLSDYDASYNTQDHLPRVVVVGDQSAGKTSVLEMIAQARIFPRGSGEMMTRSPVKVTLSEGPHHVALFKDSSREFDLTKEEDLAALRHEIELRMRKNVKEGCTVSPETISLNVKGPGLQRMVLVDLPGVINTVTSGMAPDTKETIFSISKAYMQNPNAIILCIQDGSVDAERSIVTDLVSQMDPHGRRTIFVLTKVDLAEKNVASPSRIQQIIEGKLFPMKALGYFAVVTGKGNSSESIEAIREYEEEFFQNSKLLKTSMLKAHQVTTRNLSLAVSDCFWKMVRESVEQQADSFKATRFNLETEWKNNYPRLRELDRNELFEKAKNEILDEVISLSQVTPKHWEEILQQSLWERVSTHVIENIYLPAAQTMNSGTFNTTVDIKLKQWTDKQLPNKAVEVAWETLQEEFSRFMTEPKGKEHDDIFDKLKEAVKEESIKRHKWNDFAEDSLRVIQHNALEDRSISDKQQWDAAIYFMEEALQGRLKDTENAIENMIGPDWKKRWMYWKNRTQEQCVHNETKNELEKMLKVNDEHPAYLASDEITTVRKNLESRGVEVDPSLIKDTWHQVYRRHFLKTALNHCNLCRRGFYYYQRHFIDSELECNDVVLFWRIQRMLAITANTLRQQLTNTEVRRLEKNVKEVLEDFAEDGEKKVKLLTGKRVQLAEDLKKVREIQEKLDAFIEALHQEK

MEFs [1] = assay: Mitochondrial membrane potential by TMRM imaging in response to oligomycin; conditions: range of concentrations well above rOPA1 IC50
[2] = tested on: recombinant Dynamin-1 lacking the proline rich domain (PRD) (Dyn1ΔPRD); assay: Malachite green GTPase activity assay of recombinant Dynamin-1 (specificity); conditions: even at concentrations four times above the calculated IC50 for OPA1
Method: The assay was performed in 96 well-plates in a final volume of 190 µl/well. To start the hydrolysis reaction, 10 µl of 0.5 µM of rOPA1 in 40 mM Hepes/KOH pH 7.4 was mixed with 10 µl of 500 µM GTP and 10 mM MgCl2 and incubated for 2 hours at 37 °C. The reaction was then halted by adding to each well 5 µl of 500 µM EDTA, which chelates the Mg2+ required for GTP hydrolysis. To measure the phosphate content, 150 µL of the Malachite Green-ammonium molybdate solution (1 mM Malachite Green, 10 mM ammonium molybdate in 1N HCl) was added at each well. After 15 minutes incubation at 25 °C, was measured the absorbance at 595 nm using a microplate reader. Phosphate concentration of each sample was calculated from a standard curve ranging from 1 to 100 µM Pi generated for each experiment. […] As positive control of OPA1 activity inhibition, 5 µl of 500 µM EDTA were added before incubation with GTP to prevent the hydrolysis reaction. Samples with only buffer and 500 µM GTP were used as blank controls.

WT MEFs mitochondria = assay: Live imaging of mitochondrial network (mtYFP); conditions: 50 µM or 100 µM, 24h
Method: After 24 h, the coverslips were incubated in Hank's Balanced Salt Solution (HBSS) supplemented with 10 mM Hepes and placed on the stage of the microscope. […] Stacks of 25 images separated by 0.3 µm along the z axis were acquired. Convolution and z-stack project were performed using a plug-in of the ImageJ software (National Institutes of Health). Mitochondrial length was quantified with Image J by measuring the average mitochondrial major axis length of 10 mitochondria per cell in 20 cells per sample.

[3] = Solubility in water, DMSO and cell culture medium; format: physicochemical
Source text: (§1) Drug Discov Today 17, 419-424).

[4] = tested on: purified mouse liver mitochondria; assay: In vitro cytochrome c release from isolated mitochondria in response to cBID (ELISA, immunoblot)
Method: (§2) Quantitative determination of cytochrome c in the pellet and the supernatant fractions was determined using the rat/mouse specific ELISA Cytochrome c Immunoassay (R&D Systems). Respiratory chain dysfunctions and membrane potential were assayed by monitoring the release of rhodamine123 from pre-stained mitochondria.

MDA-MB-231 cells [5] = assay: Analysis of cell death by Annexin V / propidium iodide flow cytometry in MDA-MB-231 cells
Method: After 24h, viability was measured cytofluorimetrically as the percentage of Annexin V and propidium iodide negative cells. […] At the indicated timepoints, cells viability was measured cytofluorimetrically as the percentage of Annexin V and propidium iodide negative cells. Data represents average ± SEM of three independent experiments.
(§3) Analysis of cell death: 1 × 10^5 MEFs were grown in 12-well plates. […] After different timepoints cells were stained with Annexin-V-FICT and propidium iodide (PI), according to manufacturer's protocol (eBioscienceTM). Cell death was measured by flow cytometry (FACSCalibur) as the percentage of Annexin-V and PI positive events.

[6] = tested on: mitochondria purified from mouse liver; assay: Membrane potential of isolated mitochondria by Rhodamine 123; conditions: complex I (glutamate/malate) or complex II (succinate) substrates; concentrations well above rOPA1 IC50
Method: as §2

MEFs [7] = assay: Cytochrome c immunolocalization after H2O2
Source text: For cytochrome c and TOM20 detection, green and red channel images respectively were acquired simultaneously using two separate color channels on the detector assembly of a Zeiss LSM 700 confocal microscope.

WT MEFs = assay: Analysis of cell death by Annexin V / propidium iodide flow cytometry in MEFs; conditions: concentrations up to 100 µM, 24h
Method: as §3

[8] = tested on: Mouse embryonic fibroblasts (MEFs); assay: Cell permeability (280 nm absorbance of extracellular medium; SPE and HPLC-UV of cell lysates); format: in vitro ADME
Source text: as §1

MDA-MB-231 cells [9] = assay: Scratch wound migration assay; format: cell-based, human; conditions: cells transfected with OPA1 siRNA, 20 µM MYLS22
Method: Scratch wound migration assay: HUVEC and MDA cells were cultured in 48-well plates in 800 µl of EGM2 for 48 hours and were wounded with the head of 200 µl tips.

SMILES: O=C(O)CN(CCN(CC(=O)O)CC(=O)O)CC(=O)O [EDTA, ethylenediaminetetraacetic acid]
inhibition of rOPA1 GTP hydrolysis (rOPA1): stably and fully inhibited GTP hydrolysis

SMILES: Cc1nn(-c2ccccc2)c2sc(C(=O)Nc3c(C)n(C)n(-c4ccccc4)c3=O)cc12 [MYLS22, N-(1,5-dimethyl-3-oxo-2-phenyl-2,3-dihydro-1H-pyrazol-4-YL) 3-methyl-1-phenyl-1H-thieno[2,3-c]pyrazole-5-carboxamide]
mitochondrial membrane potential (TMRM fluorescence) (MEFs [1]): membrane potential was stable
Dyn1ΔPRD inhibition [2]: did not
mitochondrial morphology (WT MEFs mitochondria): dose dependent mitochondrial fragmentation and decrease in mitochondrial length
aqueous solubility [3]: low aqueous solubility
solubility ([3]; DMSO, organic solvent or mixture, read-out: soluble in DMSO): ≤ 1000 µM
solubility ([3]; cell culture medium, plasma or biological fluid, read-out: soluble in cell culture medium): ≤ 150 µM
increase of the amount of cytochrome c release ([4]; 25µM MYLS22, cBID): 1.7 fold
amount of cytochrome c release ([4]; 125 µM MYLS22, cBID): more than doubled
cell death after an apoptotic stimulus (MDA-MB-231 cells [5]; 50 or 100 µM MYLS22 and 1 mM H2O2): enhances MDA-MB-231 cells death
cell death (MDA-MB-231 cells [5]; indicated concentrations, 24h): does not induce cell death in MDA-MB-231 cells
uptake of the potentiometric dye Rhodamine 123 [6]: did not reduce uptake
time to maximal release of cytochrome c after apoptosis induction (MEFs [7]; 50µM MYLS22, 1 mM H2O2): 30 min
release of cytochrome c (MEFs [7]; 50µM MYLS22, H2O2, versus 25 µM MYLS22 or DMSO): significantly more rapidly
cell death (WT MEFs): did not cause MEFs death
cell permeability ([8]; HPLC-UV at 280 nm on cell lysates after SPE): can enter mammalian cells
concentration of MYLS22 in the extracellular medium ([8]; MEFs in HBSS, 280 nm absorption over time): decreased with incubation time
effect on cell migration combined with OPA1 silencing (MDA-MB-231 cells [9]): not additive

The remaining lines, values ahead:

rOPA1 GTPase activity (rOPA1; 500 µM GDP): not influenced
SMILES: Nc1nc2c(ncn2[C@@H]2O[C@H](COP(=O)(O)OP(=O)(O)O)[C@@H](O)[C@H]2O)c(=O)[nH]1 [GDP]

rOPA1 activity (rOPA1): inhibited
SMILES: Nc1nc2c(ncn2[C@@H]2O[C@H](COP(=O)(O)OP(=O)(O)NP(=O)(O)O)[C@@H](O)[C@H]2O)c(=O)[nH]1 [GMPPNP]

inhibition of rOPA1 GTP hydrolysis (rOPA1): residual rOPA1 activity
rOPA1 activity (rOPA1): inhibited
SMILES: Nc1nc2c(ncn2[C@@H]2O[C@H](COP(=O)(O)OP(=O)(O)OP(O)(O)=S)[C@@H](O)[C@H]2O)c(=O)[nH]1 [GTPγS]
